Test results: patent US12569500B2, “Combination comprising tricycle compound and use thereof in preparation of medicament for treating HBV” (FUJIAN AKEYLINK BIOTECHNOLOGY CO., LTD., priority 2020, dated 2026)
Where a name gives a salt, the structure may show the parent alone.

Key:
Format in all cases: cell-based
[1] = system: HBV; experiment: Single agent anti-HBV activity, HBV DNA in supernatant by quantitative PCR, HepG2.2.15 cells; conditions: Hepatitis B virus, 192 h, day 8
Description: (§1) Cell line: HepG2.2.15 cells are constructed and provided by WuXi AppTec. The cell culture medium is DMEM/F12 medium supplemented with 2% fetal bovine serum, 2 mM glutamine, 1×non-essential amino acids, 100 U/mL penicillin and 100 µg/mL streptomycin.
(§2) 2.1.1 On the first day, HepG2.2.15 cells were seeded into a 96-well cell culture plate at a density of 60,000 cells/well, and then the cells were cultured overnight at 5% CO2 and 37° C. On the second day, the compound 1 and the compound of formula (IIb) and the compound of formula (IIIb) were diluted and added to a 96-well plate. Each combination was a three-fold plate. The cells were cultured under 5% CO2 and 37° C. for 3 days. On the 5th day, a new culture medium containing the compound was replaced, and the supernatant was collected on the 8th day. The HBsAg in the supernatant was detected by ELISA, and the DNA in the supernatant was extracted at the same time, and the content of HBV DNA in the supernatant was detected by quantitative PCR. After collecting the cell supernatant, add CellTiter-Glo to detect cell viability.

[2] = system: HBsAg; experiment: Single agent anti-HBV activity, HBsAg in supernatant by ELISA, HepG2.2.15 cells; conditions: Hepatitis B virus, HepG2.2.15, 192 h, read-out: HBsAg EC50
Description: as §1, §2

[3] = Single agent cytotoxicity, CellTiter-Glo; conditions: human, HepG2.2.15 cells
Description: as §1, §2

[4] = system: HepG2.2.15 cells; experiment: Cytotoxicity of the compounds in combination, CellTiter Glo
Description: as §1
2.2.1 On the first day, HepG2.2.15 cells were seeded into a 96-well cell culture plate at a density of 60,000 cells/well, and then the cells were cultured overnight at 5% CO2 and 37° C. On the second day, different concentrations of compounds were added to treat the cells. Compounds were diluted in gradients, 7×7 concentration combinations, and 3 replicate plates were tested in parallel. The compound concentration tested for joint activity is based on the EC50 value of each compound. The 7 concentration gradients are approximately: 2×, 1×, ½×, ¼×, ⅛×, 1/16× and 1/32×EC50. The compound concentration of the combined activity test experiment is shown in Table 8, and the combination drug arrangement is shown in Table 9. On the 5th day, replace the fresh culture medium containing the compound. On the 8th day, the culture supernatant was collected, DNA was extracted, and the content of HBV DNA was detected by quantitative PCR. At the same time, CellTiter Glo reagent was used to detect cell viability and MacSynergy software was used to analyze the combined effect of the two drugs.

[5] = system: HepG2.2.15 cells; experiment: CellTiter-Glo cytotoxicity of compound 1 / TDF combination
Description: 1.1 Day 1, HepG2.2.15 cells were seeded into a 96-well cell culture plate at a density of 40,000 cells/well, and then the cells were cultured overnight at 5% CO2 and 37° C.
1.2 Day 2, the compound 1 and TDF were combined with 7 different concentrations (selected about 8×, 4×, 2×, 1×, 0.5×, 0.25×, 0.125×EC50 concentration gradient) for orthogonal proportioning, and added to 96-well plate, each combination is 3 double plates, and the final concentration of DMSO is 0.5%.
1.3 Day 5, the cell supernatant was discarded, a fresh medium containing the compound was added, and the cells were cultured under 5% CO2, 37° C. for 3 days. On the 8th day, the supernatant from the cell plate treated with the compound was extracted according to the QIAamp 96 DNA Blood Kit (12) instruction.
MacSynegy software (Prichard et al., 1990) was used to process the HBV DNA copy number test data and analyze the effect parameters of compound 1 and TDF in combination. The CellTiter-Glo kit was used to detect the cytotoxicity of the compounds to HepG2.2.15 cells. According to the kit instructions, use a multifunctional microplate reader to detect the chemiluminescence intensity (RLU) of each cell well.

SMILES: COCCCOc1cc2c(cc1OC)-c1cc(=O)c(C(=O)O)cn1[C@H](c1cccs1)O2 [Compound of formula (IIIb)]
- EC50 [1]: 0.78 nM
- EC50 [2]: 0.91 nM
- CC50 at 6 days [3]: > 50 nM
- average cell viability percentage ([4]; Compound 1 0 nM + formula (IIIb) 0.01875 nM): 103.45%
- average cell viability percentage ([4]; Compound 1 0 nM + formula (IIIb) 0.0375 nM): 103.81%
- average cell viability percentage ([4]; Compound 1 0 nM + formula (IIIb) 0.075 nM): 105.64%
- average cell viability percentage ([4]; Compound 1 0 nM + formula (IIIb) 0.15 nM): 105.68%
- average cell viability percentage ([4]; Compound 1 0 nM + formula (IIIb) 0.3 nM): 103.14%
- average cell viability percentage ([4]; Compound 1 0 nM + formula (IIIb) 0.6 nM): 103.50%
- average cell viability percentage ([4]; Compound 1 0 nM + formula (IIIb) 1.2 nM): 112.02%

SMILES: COCCCOc1cc2c(cc1OC)-c1cc(=O)c(C(=O)O)cn1[C@H](C(C)(C)C)CO2 [Compound of formula (IIb)]
- EC50 [1]: 1.52 nM
- EC50 [2]: 4.9 nM
- CC50 at 6 days [3]: > 1000 nM
- average cell viability percentage ([4]; Compound 1 0 nM + formula (IIb) 0.09375 nM): 101.23%
- average cell viability percentage ([4]; Compound 1 0 nM + formula (IIb) 0.1875 nM): 101.98%
- average cell viability percentage ([4]; Compound 1 0 nM + formula (IIb) 0.375 nM): 102.39%
- average cell viability percentage ([4]; Compound 1 0 nM + formula (IIb) 0.75 nM): 105.36%
- average cell viability percentage ([4]; Compound 1 0 nM + formula (IIb) 1.5 nM): 104.15%
- average cell viability percentage ([4]; Compound 1 0 nM + formula (IIb) 3 nM): 102.61%
- average cell viability percentage ([4]; Compound 1 0 nM + formula (IIb) 6 nM): 111.27%

SMILES: CC(C)OC(=O)OCOP(=O)(CO[C@H](C)Cn1cnc2c(N)ncnc21)OCOC(=O)OC(C)C [TDF, tenofovir disoproxil fumarate, reference compound]
- average cell viability percentage ([5]; Compound 1 0 nM + TDF 1 nM): 103.1%
- average cell viability percentage ([5]; Compound 1 0 nM + TDF 2 nM): 101.1%
- average cell viability percentage ([5]; Compound 1 0 nM + TDF 4 nM): 103.8%
- average cell viability percentage ([5]; Compound 1 0 nM + TDF 8 nM): 116.6%
- average cell viability percentage ([5]; Compound 1 0 nM + TDF 16 nM): 111.4%
- average cell viability percentage ([5]; Compound 1 0 nM + TDF 32 nM): 111 ± 7.3%
- average cell viability percentage ([5]; Compound 1 0 nM + TDF 64 nM): 127 ± 14%
